This note sets out measurements from patent publication US6998422B2, “Lipid peroxide-lowering compositions” (Sankyo Company, Limited, priority 2000, dated 2006).

The test concerns blood lipid peroxides. The test can be described thus: Blood lipid peroxide levels in serum of beagle dogs after oral dosing for 11 days (Yagi's method, fluorometer). To be noted: relative ratio against averaged pre-dosing level (100), oral capsule once daily, pravastatin 2 mg/kg, mean of 5 dogs.

Source text: Beagle dogs aged 5 months were purchased from Covance Research Products Inc. and used after 1 month of quarantine and acclimatisation breeding.
The required amounts of pravastatin or each component of the combination drug calculated from the body weight of each dog were weighed and filled in a gelatin capsule purchased from TORPAC Inc. Capsules filled with pravastatin were stocked in a refrigerator and those filled with combination drugs stocked at room temperature until use.
The combination drugs were filled in identical gelatin capsules.
Pravastatin or combination drug capsules were forcibly orally administered to each of the test animals once daily between 9:00 and 12:30. Animals were fasted for 2 or 3 hr prior to administration of the capsules.
The administration period was 11 successive days.
Blood (10 mL) was collected from the superficial radial vein 3 or 4 days prior to administration (−3 or −4 days in the first week prior to capsule administration) and 4 and 8 days after administration of the capsule. Animals were fasted for approximately 18 hr prior to blood collection. Collected blood was placed in a test tube and left at room temperature for 0.5–1 hr and centrifuged (3,000 rpm, for 10 min). The obtained serum was used for assays of blood lipid peroxides according to Yagi's methods.
A fluorometer (Hitachi, Ltd., F3000) was used for assay of the lipid peroxides.
The averaged value in each group was obtained from 5 animals a group.

Consider `CC[C@H](C)C(=O)O[C@H]1C[C@H](O)C=C2C=C[C@H](C)[C@H](CC[C@@H](O)C[C@@H](O)CC(=O)O)[C@H]21` [Pravastatin alone, (+)-(3R,5R)-3,5-dihydroxy-7-[(1S,2S,6S,8S,8aR)-6-hydroxy-2-methyl-8-[(S)-2-methylbutyryloxy]-1,2,6,7,8,8a-hexahydro-1-naphthyl]heptanoate], for which the “Blood Lipid Peroxide Levels after administration, 4 days” value (“Blood Lipid Peroxide Levels … 4 days” for short) (pantethine 300 mg/kg) came out at 110.8 and the “Blood Lipid Peroxide Levels … 4 days” value (taurine 1,000 mg/kg) was found to be 110.8. The “Blood Lipid Peroxide Levels after administration, 8 days” value was 116.2 (pantethine 300 mg/kg) and 116.2 (taurine 1,000 mg/kg).

As to `NCCS(=O)(=O)O` [Taurine alone, Taurine], under “taurine 1,000 mg/kg”, the “Blood Lipid Peroxide Levels … 4 days” value was 95.8 and the “Blood Lipid Peroxide Levels after administration, 8 days” value was found to be 93.8.
